From US20240246964A1 (Arbutus Biopharma Corporation, priority 2021, published 2024)

Experiments:
[1] = target: PD-L1 His protein / PD-1 Fc protein (Homo sapiens (Human), UniProt Q9NZQ7); assay: HTRF Assay (PD-1/PD-L1 interaction); type: binding; conditions: PD-L1 His 6 nM, PD-1 Fc 6 nM
human PD-L1 = human PD-L1 (Homo sapiens (Human), UniProt Q9NZQ7); assay: T cell activation luciferase reporter cell culture system (T Cell Activation Assay); type: cell-based; conditions: luciferase reporter assay; PD-L1 aAPC/CHO-K1 cells with PD-1 effector Jurkat T cells
human PD-L1, sequence (Q9NZQ7 19-290): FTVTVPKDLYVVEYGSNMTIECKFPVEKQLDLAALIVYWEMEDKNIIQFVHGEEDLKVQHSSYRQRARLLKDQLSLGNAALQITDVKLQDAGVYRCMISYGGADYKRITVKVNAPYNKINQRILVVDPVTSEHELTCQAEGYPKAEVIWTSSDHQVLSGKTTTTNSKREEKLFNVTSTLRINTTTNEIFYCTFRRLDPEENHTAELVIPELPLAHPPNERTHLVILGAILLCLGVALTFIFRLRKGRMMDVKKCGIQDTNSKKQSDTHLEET

PD-L1 His protein / PD-1 Fc protein, sequence (Q9NZQ7 19-238): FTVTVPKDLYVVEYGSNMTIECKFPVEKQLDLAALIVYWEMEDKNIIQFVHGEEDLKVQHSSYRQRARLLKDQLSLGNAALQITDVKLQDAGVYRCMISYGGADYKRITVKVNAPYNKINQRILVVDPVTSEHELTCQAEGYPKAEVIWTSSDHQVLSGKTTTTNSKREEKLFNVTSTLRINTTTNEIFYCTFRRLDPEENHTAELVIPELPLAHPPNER

Compound	IC50 [1]	EC50 (human PD-L1)
COc1cc(-c2nccc(-c3cccc(NC(=O)c4ccc(CNC5CC6(C5)CN(C(C)=O)C6)cn4)c3Cl)c2Cl)ccc1CNC1CC2(C1)CN(C(C)=O)C2 (stereo not drawn) [Example 706, 5-(((2-Acetyl-2-azaspiro[3.3]heptan-6-yl)amino)methyl)-N-(3-(2-(4-(((2-acetyl-2-azaspiro[3.3]heptan-6-yl)amino)methyl)-3-methoxyphenyl)-3-chloropyridin-4-yl)-2-chlorophenyl)picolinamide]	0.2 nM	72.6 nM
COc1nc(-c2ccnc(-c3cccc4c3CCC[C@@H]4Nc3nc(OC)c(CNC[C@H](C)O)cc3C(F)(F)F)c2Cl)ccc1CNC[C@@H]1CCC(=O)N1 [Example 707, (S)-5-((((3′-Chloro-2′-((S)-5-((5-((((S)-2-hydroxypropyl)amino)methyl)-6-methoxy-3-(trifluoromethyl)pyridin-2-yl)amino)-5,6,7,8-tetrahydronaphthalen-1-yl)-6-methoxy-[2,4′-bipyridin]-5-yl)methyl)amino)methyl)pyrrolidin-2-one]	54.3 nM	≥ 10000 nM
COc1nc(-c2cccc(-c3ccnc(-c4cc(OC)c5nc(CNCC(C)(C)O)nn5c4)c3Cl)c2Cl)ccc1CNC1CCN(C(C)=O)CC1 [Example 714, 1-(4-(((6-(2-chloro-3-(3-chloro-2-(2-(((2-hydroxy-2-methylpropyl)amino)methyl)-8-methoxy-[1,2,4]triazolo[1,5-a]pyridin-6-yl)pyridin-4-yl)phenyl)-2-methoxypyridin-3-yl)methyl)amino)piperidin-1-yl)ethan-1-one]	0.54 nM	249 nM
COc1cc(-c2ncnc(-c3cccc(-c4ccc(CNC[C@@H]5CCC(=O)N5)c(OC)n4)c3Cl)c2OC)ccc1CNC[C@@H]1CCC(=O)N1 [Example 716, (S)-5-((((6-(2-chloro-3-(5-methoxy-6-(3-methoxy-4-(((((S)-5-oxopyrrolidin-2-yl)methyl)amino)methyl)phenyl)pyrimidin-4-yl)phenyl)-2-methoxypyridin-3-yl)methyl)amino)methyl)pyrrolidin-2-one]	0.6 nM	940 nM
COc1nc(-c2ccnc(-c3cccc4c3CCC[C@@H]4Nc3nc(OC)c(CN4CC5(CNC(=O)C5)C4)cc3C(F)(F)F)c2Cl)ccc1CNC[C@@H]1CCC(=O)N1 [Example 720, 2-((6-(((S)-5-(3′-Chloro-6-methoxy-5-(((((S)-5-oxopyrrolidin-2-yl)methyl)amino)methyl)-[2,4′-bipyridin]-2′-yl)-1,2,3,4-tetrahydronaphthalen-1-yl)amino)-2-methoxy-5-(trifluoromethyl)pyridin-3-yl)methyl)-2,6-diazaspiro[3.4]octan-7-one]	34.4 nM	≥ 10000 nM
COc1cc(-c2nccc(-c3cccc4c3CCC[C@@H]4Nc3nc(OC)c(CN4CC5(CNC(=O)C5)C4)cc3C(F)(F)F)c2Cl)ccc1CNC[C@@H]1CCC(=O)N1 [Example 724, 2-((6-(((S)-5-(3-Chloro-2-(3-methoxy-4-(((((S)-5-oxopyrrolidin-2-yl)methyl)amino)methyl)phenyl)pyridin-4-yl)-1,2,3,4-tetrahydronaphthalen-1-yl)amino)-2-methoxy-5-(trifluoromethyl)pyridin-3-yl)methyl)-2,6-diazaspiro[3.4]octan-7-one]	585 nM	≥ 10000 nM
Cc1c(NC(=O)c2ccc(CNC[C@@H]3CCC(=O)N3)cn2)cccc1-c1ccnc(-c2ccc(CNC[C@@H]3CCC(=O)N3)c(OC(F)F)c2)c1Cl [Example 725, N-(3-(3-Chloro-2-(3-(difluoromethoxy)-4-(((((S)-5-oxopyrrolidin-2-yl)methyl)amino)methyl)phenyl)pyridin-4-yl)-2-methylphenyl)-5-(((((S)-5-oxopyrrolidin-2-yl)methyl)amino)methyl)picolinamide]	0.53 nM	120 nM
COc1cc(-c2nccc(-c3cccc(NC(=O)c4ccc(CNC[C@@H]5CCC(=O)N5)cn4)c3C)c2Cl)cc(F)c1CNC[C@@H]1CCC(=O)N1 [Example 726, N-(3-(3-Chloro-2-(3-fluoro-5-methoxy-4-(((((S)-5-oxopyrrolidin-2-yl)methyl)amino)methyl)phenyl)pyridin-4-yl)-2-methylphenyl)-5-(((((S)-5-oxopyrrolidin-2-yl)methyl)amino)methyl)picolinamide]	0.42 nM	48.7 nM
COc1cc(-c2nccc(-c3cccc(NC(=O)c4ccc(CNCCO)cn4)c3C)c2Cl)ccc1CNC[C@@H]1CCC(=O)N1 [Example 735, (S)—N-(3-(3-Chloro-2-(3-methoxy-4-((((5-oxopyrrolidin-2-yl)methyl)amino)methyl)phenyl)pyridin-4-yl)-2-methylphenyl)-5-(((2-hydroxyethyl)amino)methyl)picolinamide]	0.03 nM	15.6 nM
COc1cc(-c2nccc(-c3cccc(NC(=O)c4ccc(CNC[C@@H]5CCC(=O)N5)cn4)c3C)c2Cl)ccc1CNCCCF [Example 749, (S)—N-(3-(3-Chloro-2-(4-(((3-fluoropropyl)amino)methyl)-3-methoxyphenyl)pyridin-4-yl)-2-methylphenyl)-5-((((5-oxopyrrolidin-2-yl)methyl)amino)methyl)picolinamide]	0.33 nM	461 nM
COc1cc(-c2nccc(-c3cccc(NC(=O)c4ccc(CNCCO)cn4)c3Cl)c2Cl)ccc1CNC[C@@H]1CCC(=O)N1 [Example 755, (S)—N-(2-Chloro-3-(3-chloro-2-(3-methoxy-4-((((5-oxopyrrolidin-2-yl)methyl)amino)methyl)phenyl)pyridin-4-yl)phenyl)-5-(((2-hydroxyethyl)amino)methyl)picolinamide]	0.12 nM	4.48 nM
CNCc1ccc(C(=O)Nc2cccc(-c3ccnc(-c4ccc(CNC[C@@H]5CCC(=O)N5)c(OC)c4)c3Cl)c2C)nc1 [Example 756, (S)—N-(3-(3-chloro-2-(3-methoxy-4-((((5-oxopyrrolidin-2-yl)methyl)amino)methyl)phenyl)pyridin-4-yl)-2-methylphenyl)-5-((methylamino)methyl)picolinamide]	0.2 nM	63.8 nM
COc1cc(-c2nccc(-c3cccc(NC(=O)c4ccc(CNCCO)cn4)c3Cl)c2Cl)ccc1CN1CC2(C1)CN(C(C)=O)C2 [Example 757, N-(3-(2-(4-((6-Acetyl-2,6-diazaspiro[3.3]heptan-2-yl)methyl)-3-methoxyphenyl)-3-chloropyridin-4-yl)-2-chlorophenyl)-5-(((2-hydroxyethyl)amino)methyl)picolinamide]	0.47 nM	86.5 nM
COc1nc(-c2cccc(-c3nccc(-c4ccc(CN5CCC(O)CC5)c(OC)n4)c3Cl)c2Cl)ccc1CN1CCC(O)CC1 [Example 759, 1-((3′-Chloro-2′-(2-chloro-3-(5-((4-hydroxypiperidin-1-yl)methyl)-6-methoxypyridin-2-yl)phenyl)-6-methoxy-[2,4′-bipyridin]-5-yl)methyl)piperidin-4-ol]	0.63 nM	16.9 nM
COc1nc(-c2cccc(-c3nccc(-c4ccc(CN5CC6(CCN(C(C)=O)C6)C5)c(OC)n4)c3Cl)c2Cl)ccc1CN1CC2(CCN(C(C)=O)C2)C1 [Example 760, 1-(2-((6-(3-(5-((6-Acetyl-2,6-diazaspiro[3.4]octan-2-yl)methyl)-3′-chloro-6-methoxy-[2,4′-bipyridin]-2′-yl)-2-chlorophenyl)-2-methoxypyridin-3-yl)methyl)-2,6-diazaspiro[3.4]octan-6-yl)ethan-1-one]	0.32 nM	19.2 nM
COc1nc(-c2cccc(-c3nccc(-c4ccc(CN5CCC(O)CC5)c(OC)n4)c3Cl)c2Cl)ccc1CNC1CCN(C(C)=O)CC1 [Example 761, 1-(4-(((6-(2-Chloro-3-(3′-chloro-5-((4-hydroxypiperidin-1-yl)methyl)-6-methoxy-[2,4′-bipyridin]-2′-yl)phenyl)-2-methoxypyridin-3-yl)methyl)amino)piperidin-1-yl)ethan-1-one]	0.87 nM	16.9 nM
COc1cc(-c2nccc(-c3cccc(NC(=O)c4ccc(CNCCO)cn4)c3C)c2Cl)cc(F)c1CNCCO [Example 762, N-(3-(3-chloro-2-(3-fluoro-4-(((2-hydroxyethyl)amino)methyl)-5-methoxyphenyl)pyridin-4-yl)-2-methylphenyl)-5-(((2-hydroxyethyl)amino)methyl)picolinamide]	0.75 nM	49.9 nM
COc1nc(-c2ccnc(-c3cccc(NC(=O)c4ccc(CNCCO)cn4)c3C)c2Cl)ccc1CNC1CCOCC1 [Example 766, N-(3-(3′-Chloro-6-methoxy-5-(((tetrahydro-2H-pyran-4-yl)amino)methyl)-[2,4′-bipyridin]-2′-yl)-2-methylphenyl)-5-(((2-hydroxyethyl)amino)methyl)picolinamide]	0.32 nM	152 nM
COc1cc(-c2nccc(-c3cccc(NC(=O)c4ccc(CNCCO)cn4)c3Cl)c2Cl)ccc1CNC1CCOCC1 [Example 768, N-(2-Chloro-3-(3-chloro-2-(3-methoxy-4-(((tetrahydro-2H-pyran-4-yl)amino)methyl)phenyl)pyridin-4-yl)phenyl)-5-(((2-hydroxyethyl)amino)methyl)picolinamide]	0.1 nM	16.7 nM
COc1nc(-c2ccnc(-c3cccc(NC(=O)c4ccc(CNCCO)cn4)c3C)c2Cl)ccc1CNC1CCN(C(C)=O)CC1 [Example 769, N-(3-(5-(((1-Acetylpiperidin-4-yl)amino)methyl)-3′-chloro-6-methoxy-[2,4′-bipyridin]-2′-yl)-2-methylphenyl)-5-(((2-hydroxyethyl)amino)methyl)picolinamide]	0.24 nM	60.6 nM
Cc1c(NC(=O)c2ccc(CNCCO)cn2)cccc1-c1ccnc(-c2ccc(CNC[C@@H]3CCC(=O)N3)c(OC(F)F)c2)c1Cl [Example 770, (S)—N-(3-(3-Chloro-2-(3-(difluoromethoxy)-4-((((5-oxopyrrolidin-2-yl)methyl)amino)methyl)phenyl)pyridin-4-yl)-2-methylphenyl)-5-(((2-hydroxyethyl)amino)methyl)picolinamide]	0.76 nM	24.3 nM
